Values of other authors in patent US10842882B2, “Amatoxin-antibody conjugates” ([…] GMBH, priority 2015, dated 2020).

Biological target: RNA-polymerase II (Homo sapiens, UniProt P24928)
Conditions: amanitin/RNA-polymerase II complex, background statement

amanitin
Kd: 3 nM
